Data: patent US11149018B2, “Substituted N-arylethyl-2-aminoquinoline-4-carboxamides and use thereof” (Bayer Aktiengesellschaft, priority 2017, dated 2021)

Target: FP receptor (Homo sapiens (Human), UniProt P43088)
Assay: In vitro test of inhibition of human FP receptor activity (PGF2α-induced calcium flux in FP-expressing CHEM1 cells)
Assay type: cell-based
Settings: PGF2α 2 nM, some mean values of multiple determinations
Method in brief: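 FP antagonism in FP-expressing CHEM1 cells loaded with Fluo-8. Compound preincubated 10 min at 37° C, then receptor stimulated with 2 nM (final) PGF2α in calcium-free Tyrode with 2 mM CaCl2.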

Chain of FP receptor (P43088 whole entry): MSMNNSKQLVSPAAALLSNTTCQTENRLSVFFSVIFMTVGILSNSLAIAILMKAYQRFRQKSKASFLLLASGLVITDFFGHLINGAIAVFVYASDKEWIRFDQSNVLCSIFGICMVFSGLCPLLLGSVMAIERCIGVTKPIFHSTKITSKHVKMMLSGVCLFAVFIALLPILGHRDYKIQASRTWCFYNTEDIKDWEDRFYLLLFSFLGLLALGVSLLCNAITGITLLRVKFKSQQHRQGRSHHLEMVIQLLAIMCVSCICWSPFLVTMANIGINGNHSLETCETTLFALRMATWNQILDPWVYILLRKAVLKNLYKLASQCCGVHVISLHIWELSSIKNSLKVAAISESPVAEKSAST

Structure (SMILES) | IC50
Cc1c(N2CC=CCC2)nc2ccc(Br)cc2c1C(=O)NCC(CCC(=O)O)c1ccccc1Cl (single isomer, unassigned) [Example 31, 5-({[6-Bromo-2-(3,6-dihydropyridin-1(2H)-yl)-3-methylquinolin-4-yl]carbonyl}amino)-4-(2-chlorophenyl)pentanoic acid] | 29 nM
Cc1c(N2CCCC(F)C2)nc2ccc(Br)cc2c1C(=O)NCC(CCC(=O)O)c1ccccc1C(F)(F)F (single isomer, unassigned) [Example 191, 5-[({6-Bromo-2-[3-fluoropiperidin-1-yl]-3-methylquinolin-4-yl}carbonyl)amino]-4-[2-(trifluoromethyl)phenyl]pentanoic acid] | 4.1 nM
Cc1c(N2CCCC(F)C2)nc2ccc(Br)cc2c1C(=O)NCC(CCC(=O)O)c1ccccc1C(F)(F)F (single isomer, unassigned) [Example 192, 5-[({6-Bromo-2-[3-fluoropiperidin-1-yl]-3-methylquinolin-4-yl}carbonyl)amino]-4-[2-(trifluoromethyl)phenyl]pentanoic acid] | 5.6 nM
CCC1CCCN(c2nc3ccc(Br)cc3c(C(=O)NCC(CCC(=O)O)c3ccccc3C(F)(F)F)c2C)C1 (single isomer, unassigned) [Example 195, 5-[({6-Bromo-2-[3-ethylpiperidin-1-yl]-3-methylquinolin-4-yl}carbonyl)amino]-4-[2-(trifluoromethyl)phenyl]pentanoic acid] | 77 nM
CCC1CCCN(c2nc3ccc(Br)cc3c(C(=O)NCC(CCC(=O)O)c3ccccc3OC(F)(F)F)c2C)C1 (single isomer, unassigned) [Example 206, 5-[({6-Bromo-2-[3-ethylpiperidin-1-yl]-3-methylquinolin-4-yl}carbonyl)amino]-4-[2-(trifluoromethoxy)phenyl]pentanoic acid] | 9.5 nM
Cc1c(N2CCCC(F)C2)nc2ccc(Br)cc2c1C(=O)NCC(CCC(=O)O)c1c(Cl)ccc(Cl)c1Cl (single isomer, unassigned) [Example 221, 5-[({6-Bromo-2-[3-fluoropiperidin-1-yl]-3-methylquinolin-4-yl}carbonyl)amino]-4-(2,3,6-trichlorophenyl)pentanoic acid] | 8.4 nM
Cc1c(N2CCCC(F)C2)nc2ccc(Br)cc2c1C(=O)NCC(CCC(=O)O)c1c(Cl)ccc(Cl)c1Cl (single isomer, unassigned) [Example 222, 5-[({6-Bromo-2-[3-fluoropiperidin-1-yl]-3-methylquinolin-4-yl}carbonyl)amino]-4-(2,3,6-trichlorophenyl)pentanoic acid] | 3 nM
Cc1c(N2CCCC(F)C2)nc2ccc(Br)cc2c1C(=O)NCC(CCC(=O)O)c1c(Cl)ccc(Cl)c1Cl (single isomer, unassigned) [Example 223, 5-[({6-Bromo-2-[3-fluoropiperidin-1-yl]-3-methylquinolin-4-yl}carbonyl)amino]-4-(2,3,6-trichlorophenyl)pentanoic acid] | 140 nM
Cc1c(N2CCCC(F)C2)nc2ccc(Br)cc2c1C(=O)NCC(CCC(=O)O)c1c(Cl)ccc(Cl)c1Cl (single isomer, unassigned) [Example 224, 5-[({6-Bromo-2-[3-fluoropiperidin-1-yl]-3-methylquinolin-4-yl}carbonyl)amino]-4-(2,3,6-trichlorophenyl)pentanoic acid] | 38 nM
Cc1c(N2CCCO2)nc2ccc(Br)cc2c1C(=O)NCC(CCC(=O)O)c1ccccc1Cl (single isomer, unassigned; (+)) [Example 40, (+)-5-({[6-Bromo-3-methyl-2-(1,2-oxazolidin-2-yl)quinolin-4-yl]carbonyl}amino)-4-(2-chlorophenyl)pentanoic acid] | 62 nM
Cc1c(N2CCCC(C)(C)C2)nc2ccc(Br)cc2c1C(=O)NCC(CCC(=O)O)c1ccccc1Cl (single isomer, unassigned; (+)) [Example 44, (+)-5-({[6-Bromo-2-(3,3-dimethylpiperidin-1-yl)-3-methylquinolin-4-yl]carbonyl}amino)-4-(2-chlorophenyl)pentanoic acid] | 120 nM
CCC1CCCN(c2nc3ccc(Br)cc3c(C(=O)NCC(CCC(=O)O)c3ccccc3Cl)c2C)C1 (single isomer, unassigned; (+)) [Example 58, (+)-5-[({6-Bromo-2-[3-ethylpiperidin-1-yl]-3-methylquinolin-4-yl}carbonyl)amino]-4-(2-chlorophenyl)pentanoic acid] | 0.52 nM

Next, values leading:

IC50 | Structure (SMILES)
0.76 nM | Cc1c(N2CCCCCC2)nc2ccc(Br)cc2c1C(=O)NCC(CCC(=O)O)c1c(F)ccc(F)c1Cl (single isomer, unassigned) [Example 220, 5-({[2-(Azepan-1-yl)-6-bromo-3-methylquinolin-4-yl]carbonyl}amino)-4-(2-chloro-3,6-difluorophenyl)pentanoic acid]
120 nM | Cc1c(N2CCCC2)nc2ccc(Br)cc2c1C(=O)NCC(CCC(=O)O)c1c(F)cccc1F (single isomer, unassigned) [Example 248, 5-({[6-Bromo-3-methyl-2-(pyrrolidin-1-yl)quinolin-4-yl]carbonyl}amino)-4-(2,6-difluorophenyl)pentanoic acid]
92 nM | Cc1c(N2CCCCC2)nc2ccc(Br)cc2c1C(=O)NCC(CC(=O)O)c1c(F)cccc1Cl (single isomer, unassigned; (+)) [Example 3, (+)-4-({[6-Bromo-3-methyl-2-(piperidin-1-yl)quinolin-4-yl]carbonyl}amino)-3-(2-chloro-6-fluorophenyl)butanoic acid]
6.6 nM | Cc1c(N2CCCCC2)nc2ccc(Br)cc2c1C(=O)NCC(CCC(=O)O)c1cc(F)ccc1Cl (single isomer, unassigned; (+)) [Example 7, (+)-5-({[6-Bromo-3-methyl-2-(piperidin-1-yl)quinolin-4-yl]carbonyl}amino)-4-(2-chloro-5-fluorophenyl)pentanoic acid]
21 nM | Cc1c(N2CCSCC2)nc2ccc(Br)cc2c1C(=O)NCC(CCC(=O)O)c1ccccc1Cl (single isomer, unassigned; (+)) [Example 26, (+)-5-({[6-Bromo-3-methyl-2-(thiomorpholin-4-yl)quinolin-4-yl]carbonyl}amino)-4-(2-chlorophenyl)pentanoic acid]
14 nM | Cc1c(N2CCCC(C)C2)nc2ccc(Br)cc2c1C(=O)NCC(CCC(=O)O)c1ccccc1Cl (single isomer, unassigned; (+)) [Example 47, (+)-5-[({6-Bromo-3-methyl-2-[3-methylpiperidin-1-yl]quinolin-4-yl}carbonyl)amino]-4-(2-chlorophenyl)pentanoic acid]
1.2 nM | Cc1c(N2CCCC(C)C2)nc2ccc(Br)cc2c1C(=O)NCC(CCC(=O)O)c1ccccc1Cl (single isomer, unassigned; (+)) [Example 48, (+)-5-[({6-Bromo-3-methyl-2-[3-methylpiperidin-1-yl]quinolin-4-yl}carbonyl)amino]-4-(2-chlorophenyl)pentanoic acid]
7.1 nM | Cc1c(N2CCCC(F)(F)C2)nc2ccc(Br)cc2c1C(=O)NCC(CCC(=O)O)c1ccccc1Cl (single isomer, unassigned; (+)) [Example 52, (+)-5-({[6-Bromo-2-(3,3-difluoropiperidin-1-yl)-3-methylquinolin-4-yl]carbonyl}amino)-4-(2-chlorophenyl)pentanoic acid]
